Experiments:
Format in all cases: in vivo
[1] = tested on: ragweed (common ragweed, Ambrosia elatior); experiment: Test A postemergence; conditions: Ambrosia artemisiifolia, post-emergence, 240 h, read-out: Ragweed plant response rating (0 to 100 scale); for pest or weed control at 125 g/ha: 125 g ai/ha, postemergence, visual injury vs untreated controls after approx. 10 d, 0 = no effect, 100 = complete control; for pest or weed control at 31 g/ha: Postemergence, 31 g ai/ha, 0 is no effect, 100 is complete control
Summary of the method: (§1)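 Preemergence soil spray on seeded pots or post-emergence spray on 1–2 leaf plants, in loam–sand blend. Greenhouse ~10 d. Visual rating 0–100 against untreated plants.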

Kochia (Kochia scoparia) [2] = experiment: Test A postemergence; conditions: Bassia scoparia, post-emergence, 240 h, read-out: Kochia plant response rating (0 to 100 scale); for pest or weed control at 125 g/ha: 125 g ai/ha, postemergence, visual injury vs untreated controls after approx. 10 d, 0 = no effect, 100 = complete control; for pest or weed control at 31 g/ha: Postemergence, 31 g ai/ha, 0 is no effect, 100 is complete control
Summary of the method: as §1

[3] = tested on: giant foxtail (Setaria faberii); experiment: Test A postemergence; conditions: Setaria faberi, post-emergence, 240 h, read-out: Foxtail, Giant plant response rating (0 to 100 scale); for pest or weed control at 125 g/ha: 125 g ai/ha, postemergence, visual injury vs untreated controls after approx. 10 d, 0 = no effect, 100 = complete control; for pest or weed control at 31 g/ha: Postemergence, 31 g ai/ha, 0 is no effect, 100 is complete control
Summary of the method: as §1

corn (Zea mays) = experiment: Test A postemergence; conditions: Zea mays, post-emergence, 240 h, read-out: Corn plant response rating (0 to 100 scale); for plant injury at 125 g/ha: 125 g ai/ha, postemergence, visual injury vs untreated controls after approx. 10 d, 0 = no effect, 100 = complete control; for plant injury at 31 g/ha: Postemergence, 31 g ai/ha, 0 is no effect, 100 is complete control
Summary of the method: as §1

[4] = tested on: pigweed (Amaranthus retroflexus); experiment: Test A postemergence; conditions: Amaranthus retroflexus, post-emergence, 240 h, read-out: Pigweed plant response rating (0 to 100 scale); for pest or weed control at 125 g/ha: 125 g ai/ha, postemergence, visual injury vs untreated controls after approx. 10 d, 0 = no effect, 100 = complete control; for pest or weed control at 31 g/ha: Postemergence, 31 g ai/ha, 0 is no effect, 100 is complete control
Summary of the method: as §1

[5] = tested on: Galium (catchweed bedstraw, Galium aparine); experiment: Test A postemergence; conditions: Galium, post-emergence, 240 h, read-out: Galium plant response rating (0 to 100 scale); for pest or weed control at 125 g/ha: 125 g ai/ha, postemergence, visual injury vs untreated controls after approx. 10 d, 0 = no effect, 100 = complete control; for pest or weed control at 31 g/ha: Postemergence, 31 g ai/ha, 0 is no effect, 100 is complete control
Summary of the method: as §1

[6] = tested on: barnyardgrass (Echinochloa crus-galli); experiment: Test A postemergence; conditions: Echinochloa crus-galli, post-emergence, 240 h, read-out: Barnyardgrass plant response rating (0 to 100 scale); for pest or weed control at 125 g/ha: 125 g ai/ha, postemergence, visual injury vs untreated controls after approx. 10 d, 0 = no effect, 100 = complete control; for pest or weed control at 31 g/ha: Postemergence, 31 g ai/ha, 0 is no effect, 100 is complete control
Summary of the method: as §1

[7] = tested on: blackgrass (Alopecurus myosuroides); experiment: Test A postemergence; conditions: Alopecurus myosuroides, post-emergence, 240 h, read-out: Blackgrass plant response rating (0 to 100 scale); for pest or weed control at 125 g/ha: 125 g ai/ha, postemergence, visual injury vs untreated controls after approx. 10 d, 0 = no effect, 100 = complete control; for pest or weed control at 31 g/ha: Postemergence, 31 g ai/ha, 0 is no effect, 100 is complete control
Summary of the method: as §1

[8] = tested on: wheat (Triticum aestivum); experiment: Test A postemergence; conditions: Triticum aestivum, post-emergence, 240 h, read-out: Wheat plant response rating (0 to 100 scale); for plant injury at 125 g/ha: 125 g ai/ha, postemergence, visual injury vs untreated controls after approx. 10 d, 0 = no effect, 100 = complete control; for plant injury at 31 g/ha: Postemergence, 31 g ai/ha, 0 is no effect, 100 is complete control
Summary of the method: as §1

[9] = tested on: ryegrass, Italian (Italian ryegrass, Lolium multiflorum); experiment: Test A postemergence; conditions: Lolium multiflorum, post-emergence, 240 h, read-out: Ryegrass, Italian plant response rating (0 to 100 scale); for pest or weed control at 125 g/ha: 125 g ai/ha, postemergence, visual injury vs untreated controls after approx. 10 d, 0 = no effect, 100 = complete control; for pest or weed control at 31 g/ha: Postemergence, 31 g ai/ha, 0 is no effect, 100 is complete control
Summary of the method: as §1

[10] = tested on: ragweed (common ragweed, Ambrosia elatior); experiment: Test A preemergence; conditions: Ambrosia artemisiifolia, pre-emergence, 240 h, 0 to 100 scale where 0 is no effect and 100 is complete control, read-out: Ragweed plant response rating; for pest or weed control at 31 g/ha: 31 g ai/ha, Preemergence; for pest or weed control at 125 g/ha: 125 g ai/ha, preemergence, visual injury rating, approximately 10 d
Summary of the method: as §1

Kochia (Kochia scoparia) [11] = experiment: Test A preemergence; conditions: Bassia scoparia, pre-emergence, 240 h, 0 to 100 scale where 0 is no effect and 100 is complete control, read-out: Kochia plant response rating; for pest or weed control at 31 g/ha: 31 g ai/ha, Preemergence; for pest or weed control at 125 g/ha: 125 g ai/ha, preemergence, visual injury rating, approximately 10 d
Summary of the method: as §1

[12] = tested on: giant foxtail (Setaria faberii); experiment: Test A preemergence; conditions: Setaria faberi, pre-emergence, 240 h, 0 to 100 scale where 0 is no effect and 100 is complete control, read-out: Foxtail, Giant plant response rating; for pest or weed control at 31 g/ha: 31 g ai/ha, Preemergence; for pest or weed control at 125 g/ha: 125 g ai/ha, preemergence, visual injury rating, approximately 10 d
Summary of the method: as §1

[13] = tested on: pigweed (Amaranthus retroflexus); experiment: Test A preemergence; conditions: Amaranthus retroflexus, pre-emergence, 240 h, 0 to 100 scale where 0 is no effect and 100 is complete control, read-out: Pigweed plant response rating; for pest or weed control at 31 g/ha: 31 g ai/ha, Preemergence; for pest or weed control at 125 g/ha: 125 g ai/ha, preemergence, visual injury rating, approximately 10 d
[14] = tested on: barnyardgrass (Echinochloa crus-galli); experiment: Test A preemergence; conditions: Echinochloa crus-galli, pre-emergence, 240 h, 0 to 100 scale where 0 is no effect and 100 is complete control, read-out: Barnyardgrass plant response rating; for pest or weed control at 31 g/ha: 31 g ai/ha, Preemergence; for pest or weed control at 125 g/ha: 125 g ai/ha, preemergence, visual injury rating, approximately 10 d
Summary of the method: as §1

[15] = tested on: ryegrass, Italian (Italian ryegrass, Lolium multiflorum); experiment: Test A preemergence; conditions: Lolium multiflorum, pre-emergence, 240 h, 0 to 100 scale where 0 is no effect and 100 is complete control, read-out: Ryegrass, Italian plant response rating; for pest or weed control at 31 g/ha: 31 g ai/ha, Preemergence; for pest or weed control at 125 g/ha: 125 g ai/ha, preemergence, visual injury rating, approximately 10 d
Summary of the method: as §1

[16] = tested on: ducksalad (Heteranthera limosa); experiment: Test B flooded paddy test; conditions: Heteranthera limosa, 250 g ai/ha, Flood; 0 to 100 scale where 0 is no effect and 100 is complete control; read-out: Ducksalad plant response rating
Summary of the method: (§2)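 Visual ratings (0 none to 100 complete control) are relative to untreated plants, taken 13–15 d after treatment in a greenhouse. Test material went straight into floodwater standing 3 cm above the soil, kept constant, on plants at the 2-leaf stage.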

[17] = tested on: barnyardgrass (Echinochloa crus-galli); experiment: Test B flooded paddy test; conditions: Echinochloa crus-galli, 250 g ai/ha, Flood; 0 to 100 scale where 0 is no effect and 100 is complete control; read-out: Barnyardgrass plant response rating
Summary of the method: as §2

rice (Oryra sativa) = experiment: Test B flooded paddy test; conditions: Oryza sativa, 250 g ai/ha, Flood; 0 to 100 scale where 0 is no effect and 100 is complete control; read-out: Rice plant response rating
Summary of the method: as §2

[18] = tested on: sedge, umbrella (small-flower umbrella sedge, Cyperus difformis); experiment: Test B flooded paddy test; conditions: Cyperus difformis, 250 g ai/ha, Flood; 0 to 100 scale where 0 is no effect and 100 is complete control; read-out: Sedge, Umbrella plant response rating
Summary of the method: as §2

SMILES | pest or weed control at 125 g/ha [1] | pest or weed control at 31 g/ha [1] | pest or weed control at 125 g/ha (Kochia (Kochia scoparia) [2]) | pest or weed control at 31 g/ha (Kochia (Kochia scoparia) [2]) | pest or weed control at 125 g/ha [3] | pest or weed control at 31 g/ha [3] | plant injury at 125 g/ha (corn (Zea mays)) | plant injury at 31 g/ha (corn (Zea mays)) | pest or weed control at 125 g/ha [4] | pest or weed control at 31 g/ha [4] | pest or weed control at 125 g/ha [5] | pest or weed control at 31 g/ha [5] | pest or weed control at 125 g/ha [6] | pest or weed control at 31 g/ha [6] | pest or weed control at 125 g/ha [7] | pest or weed control at 31 g/ha [7] | plant injury at 125 g/ha [8] | plant injury at 31 g/ha [8] | pest or weed control at 125 g/ha [9] | pest or weed control at 31 g/ha [9] | other results
Cc1ccc([C@H]2CN(C)C(=O)[C@@H]2C(=O)Nc2cccc(F)c2C#N)cc1 [Compound 1189] | 40% | 0% | 20% | 0% | 80% | 70% | 20% | 0% | 0% | 0% | 50% | 30% | 100% | 70% | 40% | 20% | 20% | 0% | 20% | 0% | pest or weed control at 31 g/ha [10]: 0%; pest or weed control at 125 g/ha [10]: 50%; pest or weed control at 31 g/ha (Kochia (Kochia scoparia) [11]): 40%; pest or weed control at 125 g/ha (Kochia (Kochia scoparia) [11]): 70%; pest or weed control at 31 g/ha [12]: 90%; pest or weed control at 125 g/ha [12]: 100%; pest or weed control at 31 g/ha [13]: 0%; pest or weed control at 125 g/ha [13]: 40%; pest or weed control at 31 g/ha [14]: 90%; pest or weed control at 125 g/ha [14]: 100%; pest or weed control at 31 g/ha [15]: 20%; pest or weed control at 125 g/ha [15]: 60%; pest or weed control at 250 g/ha [16]: 100%; pest or weed control at 250 g/ha [17]: 75%; pest or weed control at 250 g/ha (rice (Oryra sativa)): 15%; pest or weed control at 250 g/ha [18]: 0%
N#Cc1ccc([C@H]2CNC(=O)[C@@H]2C(=O)Nc2ccccc2F)cc1F [Compound 1191] | 0% | 0% | 0% | 0% | 0% | 0% | 0% | 0% | 0% | 0% | 0% | 0% | 0% | 0% | 0% | 0% | 0% | 0% | 0% | 0% | pest or weed control at 31 g/ha [10]: 0%; pest or weed control at 125 g/ha [10]: 0%; pest or weed control at 31 g/ha (Kochia (Kochia scoparia) [11]): 0%; pest or weed control at 125 g/ha (Kochia (Kochia scoparia) [11]): 0%; pest or weed control at 31 g/ha [12]: 0%; pest or weed control at 125 g/ha [12]: 0%; pest or weed control at 31 g/ha [13]: 0%; pest or weed control at 125 g/ha [13]: 0%; pest or weed control at 31 g/ha [14]: 0%; pest or weed control at 125 g/ha [14]: 0%; pest or weed control at 31 g/ha [15]: 0%; pest or weed control at 125 g/ha [15]: 0%; pest or weed control at 250 g/ha [16]: 90%; pest or weed control at 250 g/ha [17]: 0%; pest or weed control at 250 g/ha (rice (Oryra sativa)): 10%; pest or weed control at 250 g/ha [18]: 0%

From patent publication US12077503B2, “Substituted cyclic amides and their use as herbicides” (FMC CORPORATION, priority 2015, dated 2024)
